Data published in US11446287B2, “Compounds and methods for EP300 or CBP modulation and indications therefor” (Opna Immuno-Oncology SA, priority 2019, dated 2022).

Molecular target: T1, Recombinant human BRD4 containing dual bromodomains (BRD4-BD12 (1-477)) (Homo sapiens, UniProt O60885)
T1 construct: Recombinant human BRD4 containing dual bromodomains (BRD4-BD12 (1-477)); made in house; host or cells: E. coli BL21-CodonPlus (DE3), modified pET vector
Experiment: BRD4 Alphascreen binding assay
Outline: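 His-tagged human BRD4 tandem bromodomains (1-477, E. coli) incubated 1 h at room temperature with biotinylated tetra-acetylated H4 (1-21) peptide and compound in HEPES pH 7.5 buffer with 2 mM DTT. AlphaScreen signal read 30 min after adding beads (7.5 μg/ml); IC50 from four-parameter fit after normalization to controls.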

| Compound | IC50 [µM] |
| --- | --- |
| Cc1noc(C)c1-c1cnc2c(c1)c(-c1ccc(C(=O)O)cc1OCC(F)F)cn2C(C1CC1)C1CC1 [P-0338, 4-(1-(dicyclopropylmethyl)-5-(3,5-dimethylisoxazol-4-yl)-1H-pyrrolo[2,3-b]pyridin-3-yl)-3-(2,2-difluoroethoxy)benzoic acid] | 8 to 1000 |
| COc1cc(C(=O)O)ncc1-c1cn(C(C2CC2)C2CC2)c2ncc(-c3c(C)noc3C)cc12 [P-0339, 5-(1-(dicyclopropylmethyl)-5-(3,5-dimethylisoxazol-4-yl)-1H-pyrrolo[2,3-b]pyridin-3-yl)-4-methoxypicolinic acid] | 1 to 8 |
| Cc1noc(C)c1-c1cnc2c(c1)c(-c1c(Cl)cc(C(=O)O)cc1OCC(F)F)cn2C(C1CC1)C1CC1 [P-0340, 3-chloro-4-(1-(dicyclopropylmethyl)-5-(3,5-dimethylisoxazol-4-yl)-1H-pyrrolo[2,3-b]pyridin-3-yl)-5-(2,2-difluoroethoxy)benzoic acid] | 8 to 1000 |
| Cc1noc(C)c1-c1cnc2c(c1)c(-c1ccc(C(=O)O)cc1OC1CCC1)cn2C1CCOCC1 [P-0341, 3-cyclobutoxy-4-(5-(3,5-dimethylisoxazol-4-yl)-1-(tetrahydro-2H-pyran-4-yl)-1H-pyrrolo[2,3-b]pyridin-3-yl)benzoic acid] | 8 to 1000 |
| Cc1noc(C)c1-c1cnc2c(c1)c(-c1ccc(C(=O)O)cc1OC(C)C)c(C)n2C(C1CC1)C1CC1 [P-0342, 4-(1-(dicyclopropylmethyl)-5-(3,5-dimethylisoxazol-4-yl)-2-methyl-1H-pyrrolo[2,3-b]pyridin-3-yl)-3-isopropoxybenzoic acid] | 8 to 1000 |
| Cc1noc(C)c1-c1cnc2c(c1)c(-c1ccc(C(=O)O)cc1OC(F)(F)F)c(C)n2C(C1CC1)C1CC1 [P-0343, 4-(1-(dicyclopropylmethyl)-5-(3,5-dimethylisoxazol-4-yl)-2-methyl-1H-pyrrolo[2,3-b]pyridin-3-yl)-3-(trifluoromethoxy)benzoic acid] | 8 to 1000 |
| Cc1noc(C)c1-c1ccc2c(c1)c(-c1ccc(C(=O)O)cc1OC(F)(F)F)cn2C(C1CC1)C1CC1 [P-0344, 4-(1-(dicyclopropylmethyl)-5-(3,5-dimethylisoxazol-4-yl)-1H-indol-3-yl)-3-(trifluoromethoxy)benzoic acid] | 8 to 1000 |
| Cc1noc(C)c1-c1cnc2c(c1)c(-c1ccc(C(=O)O)cc1OC(F)(F)F)c(C)n2-c1ncccc1C#N [P-0345, 4-(1-(3-cyanopyridin-2-yl)-5-(3,5-dimethylisoxazol-4-yl)-2-methyl-1H-pyrrolo[2,3-b]pyridin-3-yl)-3-(trifluoromethoxy)benzoic acid] | 8 to 1000 |
| Cc1noc(C)c1-c1cnc2c(c1)c(-c1c(Cl)cc(C(=O)O)cc1OC(F)(F)F)cn2[C@H]1CCOC1 [P-0346, (S)-3-chloro-4-(5-(3,5-dimethylisoxazol-4-yl)-1-(tetrahydrofuran-3-yl)-1H-pyrrolo[2,3-b]pyridin-3-yl)-5-(trifluoromethoxy)benzoic acid] | 8 to 1000 |
| Cc1noc(C)c1-c1cnc2c(c1)c(-c1ccc(C(=O)O)cc1OC1CCC1)cn2-c1cnc(N2CCC2)nc1 [P-0347, 4-(1-(2-(azetidin-1-yl)pyrimidin-5-yl)-5-(3,5-dimethylisoxazol-4-yl)-1H-pyrrolo[2,3-b]pyridin-3-yl)-3-cyclobutoxybenzoic acid] | 8 to 1000 |
| Cc1noc(C)c1-c1cnc2c(c1)c(-c1c(F)cc(C(=O)O)cc1OCC(F)F)cn2-c1cnc(N2CCC2)nc1 [P-0348, 4-(1-(2-(azetidin-1-yl)pyrimidin-5-yl)-5-(3,5-dimethylisoxazol-4-yl)-1H-pyrrolo[2,3-b]pyridin-3-yl)-3-(2,2-difluoroethoxy)-5-fluorobenzoic acid] | 8 to 1000 |
| Cc1nn(C(F)F)cc1-n1cc(-c2ccc(C(=O)O)cc2OCC(F)F)c2cc(-c3c(C)noc3C)cnc21 [P-0349, 3-(2,2-difluoroethoxy)-4-(1-(1-(difluoromethyl)-3-methyl-1H-pyrazol-4-yl)-5-(3,5-dimethylisoxazol-4-yl)-1H-pyrrolo[2,3-b]pyridin-3-yl)benzoic acid] | 8 to 1000 |
| Cc1noc(C)c1-c1cnc2c(c1)c(-c1ccc(C(=O)O)cc1OC1CCC1)cn2[C@H]1CCOC1 [P-0350, (S)-3-cyclobutoxy-4-(5-(3,5-dimethylisoxazol-4-yl)-1-(tetrahydrofuran-3-yl)-1H-pyrrolo[2,3-b]pyridin-3-yl)benzoic acid] | 8 to 1000 |
| Cc1nn(C(F)F)cc1-n1cc(-c2ccc(C(=O)O)cc2OC2CCC2)c2cc(-c3c(C)noc3C)cnc21 [P-0351, 3-cyclobutoxy-4-(1-(1-(difluoromethyl)-3-methyl-1H-pyrazol-4-yl)-5-(3,5-dimethylisoxazol-4-yl)-1H-pyrrolo[2,3-b]pyridin-3-yl)benzoic acid] | 8 to 1000 |
| Cc1noc(C)c1-c1cnc2c(c1)c(-c1c(Cl)cc(C(=O)O)cc1OCC(F)F)cn2-c1cnn(C(F)F)c1C [P-0352, 3-chloro-5-(2,2-difluoroethoxy)-4-(1-(1-(difluoromethyl)-5-methyl-1H-pyrazol-4-yl)-5-(3,5-dimethylisoxazol-4-yl)-1H-pyrrolo[2,3-b]pyridin-3-yl)benzoic acid] | 1 to 8 |
| Cc1noc(C)c1-c1cnc2c(c1)c(-c1ccc(C(=O)O)cc1OC1CCC1)cn2-c1cnn(C(F)F)c1C [P-0353, 3-cyclobutoxy-4-(1-(1-(difluoromethyl)-5-methyl-1H-pyrazol-4-yl)-5-(3,5-dimethylisoxazol-4-yl)-1H-pyrrolo[2,3-b]pyridin-3-yl)benzoic acid] | 8 to 1000 |
| Cc1noc(C)c1-c1cnc2c(c1)c(-c1ccc(C(=O)O)cc1OC(C)C)cn2-c1cnn(C(F)F)c1C [P-0354, 4-(1-(1-(difluoromethyl)-5-methyl-1H-pyrazol-4-yl)-5-(3,5-dimethylisoxazol-4-yl)-1H-pyrrolo[2,3-b]pyridin-3-yl)-3-isopropoxybenzoic acid] | 8 to 1000 |
| Cc1noc(C)c1-c1cnc2c(c1)c(-c1c(Cl)cc(C(=O)O)cc1OC(F)(F)F)cn2C1CCOCC1 [P-0355, 3-chloro-4-(5-(3,5-dimethylisoxazol-4-yl)-1-(tetrahydro-2H-pyran-4-yl)-1H-pyrrolo[2,3-b]pyridin-3-yl)-5-(trifluoromethoxy)benzoic acid] | 1 to 8 |
| Cc1noc(C)c1-c1cnc2c(c1)c(-c1c(Cl)cc(C(=O)O)cc1OC1CCC1)cn2C(C1CC1)C1CC1 [P-0356, 3-chloro-5-cyclobutoxy-4-(1-(dicyclopropylmethyl)-5-(3,5-dimethylisoxazol-4-yl)-1H-pyrrolo[2,3-b]pyridin-3-yl)benzoic acid] | 1 to 8 |
| Cc1noc(C)c1-c1cnc2c(c1)c(-c1ccc(C(=O)O)cc1OC(C)C)cn2C1CCOCC1 [P-0357, 4-(5-(3,5-dimethylisoxazol-4-yl)-1-(tetrahydro-2H-pyran-4-yl)-1H-pyrrolo[2,3-b]pyridin-3-yl)-3-isopropoxybenzoic acid] | 8 to 1000 |
| Cc1noc(C)c1-c1cnc2c(c1)c(-c1c(Cl)cc(C(=O)O)cc1OC1CCC1)cn2C1CCOCC1 [P-0358, 3-chloro-5-cyclobutoxy-4-(5-(3,5-dimethylisoxazol-4-yl)-1-(tetrahydro-2H-pyran-4-yl)-1H-pyrrolo[2,3-b]pyridin-3-yl)benzoic acid] | 1 to 8 |
| Cc1noc(C)c1-c1cnc2c(c1)c(-c1c(Cl)cc(C(=O)O)cc1OCC(F)F)cn2C1CCOCC1 [P-0359, 3-chloro-5-(2,2-difluoroethoxy)-4-(5-(3,5-dimethylisoxazol-4-yl)-1-(tetrahydro-2H-pyran-4-yl)-1H-pyrrolo[2,3-b]pyridin-3-yl)benzoic acid] | 8 to 1000 |
| CCOc1cc(C(=O)O)c(F)cc1-c1cn([C@H]2CCOC2)c2ncc(-c3c(C)noc3C)cc12 [P-0360, (S)-4-(5-(3,5-dimethylisoxazol-4-yl)-1-(tetrahydrofuran-3-yl)-1H-pyrrolo[2,3-b]pyridin-3-yl)-5-ethoxy-2-fluorobenzoic acid] | 8 to 1000 |
| Cc1noc(C)c1-c1cnc2c(c1)c(-c1c(Cl)cc(C(=O)O)cc1OC1CCC1)cn2[C@H]1CCOC1 [P-0361, (S)-3-chloro-5-cyclobutoxy-4-(5-(3,5-dimethylisoxazol-4-yl)-1-(tetrahydrofuran-3-yl)-1H-pyrrolo[2,3-b]pyridin-3-yl)benzoic acid] | 8 to 1000 |
| COc1cc(C(=O)O)ncc1-c1cn(C2CCOCC2)c2ncc(-c3c(C)noc3C)cc12 [P-0362, 5-(5-(3,5-dimethylisoxazol-4-yl)-1-(tetrahydro-2H-pyran-4-yl)-1H-pyrrolo[2,3-b]pyridin-3-yl)-4-methoxypicolinic acid] | 0.0001 to 1 |
| Cc1noc(C)c1-c1cnc2c(c1)c(-c1c(Cl)cc(C(=O)O)cc1OC1CC1)cn2C(C1CC1)C1CC1 [P-0363, 3-chloro-5-cyclopropoxy-4-(1-(dicyclopropylmethyl)-5-(3,5-dimethylisoxazol-4-yl)-1H-pyrrolo[2,3-b]pyridin-3-yl)benzoic acid] | 1 to 8 |
| Cc1noc(C)c1-c1cnc2c(c1)c(-c1ccc(C(=O)O)cc1OC(F)(F)F)cn2CC1(C#N)CCC1 [P-0364, 4-(1-((1-cyanocyclobutyl)methyl)-5-(3,5-dimethylisoxazol-4-yl)-1H-pyrrolo[2,3-b]pyridin-3-yl)-3-(trifluoromethoxy)benzoic acid] | 1 to 8 |
| Cc1nn(CC(C)(C)O)cc1-n1cc(-c2ccc(C(=O)O)cc2OC(F)(F)F)c2cc(-c3c(C)noc3C)cnc21 [P-0365, 4-(5-(3,5-dimethylisoxazol-4-yl)-1-(1-(2-hydroxy-2-methylpropyl)-3-methyl-1H-pyrazol-4-yl)-1H-pyrrolo[2,3-b]pyridin-3-yl)-3-(trifluoromethoxy)benzoic acid] | 1 to 8 |
| Cc1nn(CC(=O)N(C)C)cc1-n1cc(-c2ccc(C(=O)O)cc2OC(F)(F)F)c2cc(-c3c(C)noc3C)cnc21 [P-0366, 4-(1-(1-(2-(dimethylamino)-2-oxoethyl)-3-methyl-1H-pyrazol-4-yl)-5-(3,5-dimethylisoxazol-4-yl)-1H-pyrrolo[2,3-b]pyridin-3-yl)-3-(trifluoromethoxy)benzoic acid] | 8 to 1000 |
